According to ChEMBL document CHEMBL1149032, “Two new cytotoxic peroxide-containing acids from a New Guinea sponge, Callyspongia sp” (1994):
Converted amounts (≈) assume the structure as drawn.

System: P388
Test: Cytotoxicity against mouse P388 cells
Assay type: functional
Details: read-out: ED50 (the source's name)

SMILES | EC50 [µg/mL]
CCCCC1(CC)C[C@@H](CC)[C@H](CC(=O)O)OO1 (some centres not stated) | 2.6 (≈ 10.1 µM)
C/C=C1/C[C@](CC)(CCCC)OO[C@H]1CC(=O)O | 5.5 (≈ 21.5 µM)
